Measured values published in patent publication US7638535B2, “4-(aminomethyl)-piperidine benzamides as 5HT4-antagonists” (Janssen Pharmaceutica N.V., priority 2003, dated 2009).

Experiments:
[1] = Metabolic stability: % metabolism after 60 minutes incubation with active liver microsomes; type: in vitro ADME; details: compound 5 μM, microsomes 1 mg/ml, NADPH-generating system, 60 minutes at 37 degrees Celsius
Description: Sub-cellular tissue preparations were made according to Gorrod et al. (Xenobiotica 5:453-462, 1975) by centrifugal separation after mechanical homogenization of tissue. Liver tissue was rinsed in ice-cold 0.1 M Tris-HCl (pH 7.4) buffer to wash excess blood. Tissue was then blotted dry, weighed and chopped coarsely using surgical scissors. The tissue pieces were homogenized in 3 volumes of ice-cold 0.1 M phosphate buffer (pH 7.4).
Tissue homogenates were centrifuged at 9000×g for 20 minutes at 4° C. The resulting supernatant was stored at −80° C. and is designated ‘S9’.
The S9 fraction can be further centrifuged at 100.000×g for 60 minutes (4° C.). The resulting supernatant was carefully aspirated, aliquoted and designated ‘cytosol’. The pellet was re-suspended in 0.1 M phosphate buffer (pH 7.4) in a final volume of 1 ml per 0.5 g original tissue weight and designated ‘microsomes’.
All sub-cellular fractions were aliquoted, immediately frozen in liquid nitrogen and stored at −80° C. until use.
For the samples to be tested, the incubation mixture contained PBS (0.1M), compound (5 μM), microsomes (1 mg/ml) and a NADPH-generating system (0.8 mM glucose-6-phosphate, 0.8 mM magnesium chloride and 0.8 Units of glucose-6-phosphate dehydrogenase). Control samples contained the same material but the microsomes were replaced by heat inactivated (10 minutes at 95 degrees Celsius) microsomes. Recovery of the compounds in the control samples was always 100%.
The mixtures were preincubated for 5 minutes at 37 degrees Celsius. The reaction was started at time point zero (t=0) by addition of 0.8 mM NADP and the samples were incubated for 60 minutes (t=60). The reaction was terminated by the addition of 2 volumes of DMSO. Then the samples were centrifuged for 10 minutes at 900×g and the supernatants were stored at room temperature for no longer as 24 hours before analysis. All incubations were performed in duplo. Analysis of the supernatants was performed with LC-MS analysis. Elution of the samples was performed on a Xterra MS C18 (50×4.6 mm, 5 μm, Waters, US). An Alliance 2790 (Supplier: Waters, US) HPLC system was used. Elution was with buffer A (25 mM ammoniumacetate (pH 5.2) in H2O/acetonitrile (95/5)), solvent B being acetonitrile and solvent C methanol at a flow rate of 2.4 ml/min. The gradient employed was increasing the organic phase concentration from 0% over 50% B and 50% C in 5 min up to 100% B in 1 minute in a linear fashion and organic phase concentration was kept stationary for an additional 1.5 minutes. Total injection volume of the samples was 25 μl.
A Quatro triple quadrupole mass spectrometer fitted with and ESP source was used as detector. The source and the desolvation temperature were set at 120 and 350° C. respectively and nitrogen was used as nebuliser and drying gas. Data were acquired in positive scan mode (single ion reaction). Cone voltage was set at 10 V and the dwell time was 1 second.
Metabolic stability was expressed as % metabolism of the compound after 60 minutes (equation given as example) of incubation in the presence of active microsomes (E(act))

h5-HT4b = target: T1, h5-HT4b (Homo sapiens, UniProt Q13639); experiment: 5HT4 antagonism: [3H]GR113808 binding to membranes of h5-HT4b-HEK 293 clone 9 cells; details: displacement of [3H]GR113808 0.1 nM, h5-HT4b-HEK 293 membranes, 30 min at 25° C.; read-out: pIC50 (5HT4 antagonistic data) (converted)
T1 construct: expressed in transfected cells; host or cells: HEK 293 (clone 9), membrane preparation
T1 sequence (Q13639 whole entry): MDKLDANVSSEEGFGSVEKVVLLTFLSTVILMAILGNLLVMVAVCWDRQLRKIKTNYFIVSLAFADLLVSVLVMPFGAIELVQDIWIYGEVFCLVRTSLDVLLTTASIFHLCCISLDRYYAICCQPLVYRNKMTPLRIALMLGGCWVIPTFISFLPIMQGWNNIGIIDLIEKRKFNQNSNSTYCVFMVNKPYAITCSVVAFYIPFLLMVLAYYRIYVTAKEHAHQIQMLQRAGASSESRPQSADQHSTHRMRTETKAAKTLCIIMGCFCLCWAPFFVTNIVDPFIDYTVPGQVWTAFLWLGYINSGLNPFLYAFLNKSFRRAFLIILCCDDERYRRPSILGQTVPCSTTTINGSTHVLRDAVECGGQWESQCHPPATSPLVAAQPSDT
Method in brief: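 Membranes from h5-HT4b-HEK 293 clone 9 cells were incubated with [3H]GR113808 (0.1 nM as added) in 50 mM HEPES-NaOH pH 7.4 for 30 min at 25 °C. Non-specific binding was defined with a 5-HT4 agonist. Bound radioligand was separated by filtration over PEI-soaked GF/B filters.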

Row | SMILES | % metabolised compound (compounds of present invention) [1] [%] | melting point [°C] | IC50 (h5-HT4b) [nM]
1 | COCCCN1CC[C@@H](CNC(=O)c2cc(C)cc3c2OCCCO3)[C@H](O)C1 [compound 200] | 15 | 108 | 0.955
2 | Cc1cc2c(c(C(=O)NC[C@@H]3CCN(CCOCCO)C[C@H]3O)c1)OCCCO2 [compound 211] | 13 |  | 2.95
3 | COCc1cc2c(c(C(=O)NC[C@@H]3CCN(CC4CCCO4)C[C@H]3O)c1)OCCCO2 (stereo partly shown) [compound 125] | 6 |  | 16.2
4 | COc1cc2c(c(C(=O)NC[C@@H]3CCN(CCCO)C[C@H]3O)c1)OCCCO2 [compound 185] | 3 |  | 19.5
5 | Cc1cc2c(c(C(=O)NC[C@@H]3CCN(CCCC(=O)N4CCN(C)CC4)C[C@H]3O)c1)OCCCO2 [compound 238] |  | > 112 | 0.851
6 | Cc1cc2c(c(C(=O)NC[C@@H]3CCN(CCCCNS(C)(=O)=O)C[C@H]3O)c1)OCCCO2 [compound 193] |  | 134 | 1.69
7 | COCCCN1CC[C@@H](CNC(=O)c2cc(C#N)cc3c2OCCO3)[C@H](O)C1 [compound 247] | 12 |  | 3.98
8 | Cc1cc2c(c(C(=O)NC[C@@H]3CCN(CCCC4(C)OCCO4)C[C@H]3O)c1)OCCCO2 [compound 227] | 24 |  | 0.501
9 | Cc1cc2c(c(C(=O)NC[C@@H]3CCN(CCCCO)C[C@H]3O)c1)OCCO2 [compound 228] | 6 |  | 0.398
10 | CS(=O)(=O)NCCN1CC[C@@H](CNC(=O)c2cc(N)c(Cl)c3c2OCCO3)[C@H](O)C1 [compound 63] |  | 180 | 69.2
11 | Cc1cc2c(c(C(=O)NC[C@@H]3CCN(CC4CCCO4)C[C@H]3O)c1)OCCCO2 (stereo partly shown) [compound 186] | 0 |  | 5.01
12 | CNc1cc2c(c(C(=O)NC[C@@H]3CCN(CCOC)C[C@H]3O)c1)OCCCO2 [compound 33] |  | 135 | 186
13 | Cc1cc2c(c(C(=O)NC[C@@H]3CCN(CCCO)C[C@H]3O)c1)OCCCO2 [compound 168] | 4 |  | 2
14 | Cc1cc2c(c(C(=O)NC[C@@H]3CCN(CCCC(N)=O)C[C@H]3O)c1)OCCCO2 [compound 197] |  | 136 | 
15 | CC(=O)CCCN1CC[C@@H](CNC(=O)c2cc(C)cc3c2OCCCO3)[C@H](O)C1 [compound 229] | 12 |  | 0.55
16 | COCCCN1CC[C@@H](CNC(=O)c2cc(C#N)cc3c2OCCCO3)[C@H](O)C1 [compound 202] | 8 |  | 4.37
17 | COc1cc2c(c(C(=O)NC[C@@H]3CCN(CCC4OCCO4)C[C@H]3O)c1)OCCCO2 [compound 187] | 18 |  | 11.5
18 | Cc1nccnc1NCCN1CC[C@@H](CNC(=O)c2cc(N)c(Cl)c3c2OCCO3)[C@H](O)C1 [compound 68] |  | 100 | 30.2
19 | COCCCN1CC[C@@H](CNC(=O)c2cc(C)cc3c2OCCCO3)[C@H](O)C1 (single isomer, unassigned) [compound 162] | 9 |  | 3.09

Row | SMILES | % metabolised compound (compounds of present invention) [1] [%] | melting point [°C] | IC50 (h5-HT4b) [nM]
20 | CC(=O)CCCN1CC[C@@H](CNC(=O)c2cc(N)c(Cl)c3c2OCCO3)[C@H](O)C1 [compound 44] |  | 130 | 22.9
21 | CNc1cc2c(c(C(=O)NC[C@@H]3CCN(CCCO)C[C@H]3O)c1)OCCCO2 [compound 2] |  | 150 | 525
22 | COCCCCN1CC[C@@H](CNC(=O)c2cc(CC#N)cc3c2OCCCO3)[C@H](O)C1 [compound 184] | 12 |  | 20
23 | CCCCN1CC[C@@H](CNC(=O)c2cc(N)cc3c2OCCO3)[C@H](O)C1 [compound 107] |  | > 160 | 5.5
24 | Cc1cc2c(c(C(=O)NC[C@@H]3CCN(CCC4OCCO4)C[C@H]3O)c1)OCCCO2 [compound 163] | 11 |  | 2.29
25 | CCCCN1CC[C@@H](CNC(=O)c2cc(CC#N)cc3c2OCCCO3)[C@H](O)C1 [compound 183] | 10 |  | 3.47
26 | COCCCN1CC[C@@H](CNC(=O)c2cc(OC)cc3c2OCCCO3)[C@H](O)C1 [compound 87] | 4 |  | 12.9
27 | CNc1cc2c(c(C(=O)NC[C@@H]3CCN(CCCOC)C[C@H]3O)c1)OCCCO2 [compound 113] |  | 126 | 126
28 | CCNc1cc2c(c(C(=O)NC[C@@H]3CCN(CCCOC)C[C@H]3O)c1)OCCCO2 [compound 177] | 4 |  | 108
29 | COCCCCN1CC[C@@H](CNC(=O)c2cc(N)cc3c2OCCCO3)[C@H](O)C1 [compound 1] |  | 174 | 49
30 | CNc1cc2c(c(C(=O)NC[C@@H]3CCN(CCCC(=O)O)C[C@H]3O)c1)OCCO2 [compound 16] |  | 240 | 617
31 | N#CCCCN1CC[C@@H](CNC(=O)c2cc(C#N)cc3c2OCCO3)[C@H](O)C1 [compound 246] | 7 |  | 12.6
32 | CNCCCN1CC[C@@H](CNC(=O)c2cc(NC)cc3c2OCCCO3)[C@H](O)C1 (hydrate or solvate) [compound 81] |  | > 130 | 
33 | CCCCN1CC[C@@H](CNC(=O)c2cc(N)c(Cl)c3c2OCCO3)[C@H](O)C1 [compound 11] |  | > 110 | 5.75
34 | CCCCN1CC[C@@H](CNC(=O)c2cc(C#N)cc3c2OCCCO3)[C@H](O)C1 [compound 159] | 22 |  | 5.01
35 | CNc1cc(C(=O)NC[C@@H]2CCN(CCCOC)C[C@H]2O)c2c(c1Cl)OCCO2 [compound 26] |  | 106 to 108 | 19.1
36 | N#Cc1cc2c(c(C(=O)NC[C@@H]3CCN(CCCO)C[C@H]3O)c1)OCCCO2 [compound 165] | 1 |  | 15.8
37 | COCCCN1CC[C@@H](CNC(=O)c2cc(C#N)cc3c2OCCCO3)[C@H](O)C1 [compound 158] | 5 |  | 10.2
